Assay results from ChEMBL document CHEMBL5321271, “Identification of Novel Quinolin-2(1H)-ones as Phosphodiesterase 1 Inhibitors for the Treatment of Inflammatory Bowel Disease” (J Med Chem, 2023).
Active and inactive are the calls of the source. No cut-off for these calls is given here.

Key:
[1] = molecular target: Dual specificity calcium/calmodulin-dependent 3',5'-cyclic nucleotide phosphodiesterase 1C (Homo sapiens, UniProt Q14123); test: Inhibition of PDE1C (147 to 531 residues) (unknown origin) using 3H-cGMP as substrate incubated for 15 mins by liquid scintillation counter analysis
[2] = molecular target: High affinity cGMP-specific 3',5'-cyclic phosphodiesterase 9A (Homo sapiens, UniProt O76083); test: Inhibition of PDE9A (181 to 506 residues) (unknown origin) using 3H-cGMP as substrate incubated for 15 mins by liquid scintillation counter analysis
RAW264.7 [3] = test: Anti-inflammatory activity in mouse RAW264.7 cells assessed as reduction in LPS-induced IL-6 mRNA expression at 5 to 10 uM incubated for 24 hrs by qPCR analysis; assay type: functional, cell-based; conditions: dose 5-10 µM
[4] = molecular target: High affinity cAMP-specific and IBMX-insensitive 3',5'-cyclic phosphodiesterase 8A (Homo sapiens, UniProt O60658); test: Inhibition of PDE8A (480 to 820 residues) (unknown origin) using 3H-cAMP as substrate incubated for 15 mins by liquid scintillation counter analysis
[5] = Metabolic stability in rat liver microsomes assessed as half life
Mus musculus [6] = test: Anti-inflammatory bowel disease activity in DSS-induced inflammatory bowel disease C57BL/6 mouse model assessed as protection of colon crypt structures at 5 mg/kg,ip BID for 7 days by Hematoxylin and eosin staining based microscopy; assay type: functional, organism-based; conditions: time 7.0 day
Mus musculus [7] = test: Anti-inflammatory bowel disease activity in DSS-induced inflammatory bowel disease C57BL/6 mouse model assessed as decrease in fecal occult blood by measuring disease activity index score at 5 mg/kg,ip BID for 7 days; assay type: functional, organism-based; conditions: time 7.0 day
Mus musculus [8] = test: Anti-inflammatory bowel disease activity in DSS-induced inflammatory bowel disease C57BL/6 mouse model assessed as increase in colon length at 5 mg/kg,ip BID for 7 days by vernier calipers analysis; assay type: functional, organism-based; conditions: time 7.0 day
[9] = molecular target: High affinity 3',5'-cyclic-AMP phosphodiesterase 7A (Homo sapiens, UniProt Q13946); test: Inhibition of PDE7A (130 to 482 residues) (unknown origin) using 3H-cAMP as substrate incubated for 15 mins by liquid scintillation counter analysis
Mus musculus [10] = test: Anti-inflammatory bowel disease activity in DSS-induced inflammatory bowel disease C57BL/6 mouse model assessed as reduction in histological inflammation in colon at 5 mg/kg,ip BID for 7 days by Hematoxylin and eosin staining based microscopy; assay type: functional, organism-based; conditions: time 7.0 day
[11] = molecular target: 3',5'-cyclic-AMP phosphodiesterase 4D (Homo sapiens, UniProt Q08499); test: Inhibition of PDE4D (86 to 413 residues) (unknown origin) using 3H-cAMP as substrate incubated for 15 mins by liquid scintillation counter analysis
[12] = molecular target: cGMP-inhibited 3',5'-cyclic phosphodiesterase 3A (Homo sapiens, UniProt Q14432); test: Inhibition of PDE3A (679 to 1087 residues) (unknown origin) using 3H-cAMP as substrate incubated for 15 mins by liquid scintillation counter analysis
RAW264.7 [13] = test: Anti-inflammatory activity in mouse RAW264.7 cells assessed as reduction in LPS-induced IL-1beta mRNA expression at 5 to 10 uM incubated for 24 hrs by qPCR analysis; assay type: functional, cell-based; conditions: dose 5-10 µM
Mus musculus [14] = test: Anti-inflammatory bowel disease activity in DSS-induced inflammatory bowel disease C57BL/6 mouse model assessed as decrease in diarrhoea by measuring disease activity index score at 5 mg/kg,ip BID for 7 days; assay type: functional, organism-based; conditions: time 7.0 day
[15] = molecular target: cGMP-specific 3',5'-cyclic phosphodiesterase (Homo sapiens, UniProt O76074); test: Inhibition of PDE5A1 (535 to 860 residues) (unknown origin) using 3H-cGMP as substrate incubated for 15 mins by liquid scintillation counter analysis
[16] = molecular target: cAMP and cAMP-inhibited cGMP 3',5'-cyclic phosphodiesterase 10A (Homo sapiens, UniProt Q9Y233); test: Inhibition of PDE10A (449 to 770 residues) (unknown origin) using 3H-cAMP as substrate incubated for 15 mins by liquid scintillation counter analysis
RAW264.7 [17] = test: Anti-inflammatory activity in mouse RAW264.7 cells assessed as reduction in LPS-induced iNOS mRNA expression at 5 to 10 uM incubated for 24 hrs by qPCR analysis; assay type: functional, cell-based; conditions: dose 5-10 µM
RAW264.7 [18] = test: Anti-inflammatory activity in mouse RAW264.7 cells assessed as reduction in LPS-induced NO release at 5 to 10 uM incubated for 24 hrs by Griess method; assay type: functional, cell-based; conditions: dose 5-10 µM
RAW264.7 [19] = test: Anti-inflammatory activity in mouse RAW264.7 cells assessed as reduction in LPS-induced TNF-alpha mRNA expression at 5 to 10 uM incubated for 24 hrs by qPCR analysis; assay type: functional, cell-based; conditions: dose 5-10 µM
RAW264.7 [20] = test: Anti-inflammatory activity in mouse RAW264.7 cells assessed as reduction in LPS-induced IL-1alpha mRNA expression at 5 to 10 uM incubated for 24 hrs by qPCR analysis; assay type: functional, cell-based; conditions: dose 5-10 µM
[21] = molecular target: cGMP-dependent 3',5'-cyclic phosphodiesterase (Homo sapiens, UniProt O00408); test: Inhibition of PDE2A (580 to 919 residues) (unknown origin) using 3H-cGMP as substrate incubated for 15 mins by liquid scintillation counter analysis
Mus musculus [22] = test: Anti-inflammatory bowel disease activity in DSS-induced inflammatory bowel disease C57BL/6 mouse model assessed as decrease in body weight loss by measuring disease activity index score at 5 mg/kg,ip BID for 7 days; assay type: functional, organism-based; conditions: time 7.0 day
Mus musculus [23] = test: Anti-inflammatory bowel disease activity in DSS-induced inflammatory bowel disease C57BL/6 mouse model assessed as decrease in fecal occult blood by measuring disease activity index score at 25 mg/kg,ip BID for 7 days by Hemo-occult test; assay type: functional, organism-based; conditions: time 7.0 day
[24] = Toxicity in DSS-induced inflammatory bowel disease C57BL/6 mouse model assessed as body weight change at 25 mg/kg,ip BID for 7 days; assay type: organism-based; conditions: in vivo, 168 h, time 7 day
Mus musculus [25] = test: Anti-inflammatory bowel disease activity in DSS-induced inflammatory bowel disease C57BL/6 mouse model assessed as increase in colon length at 25 mg/kg,ip BID for 7 days by vernier calipers analysis; assay type: functional, organism-based; conditions: time 7.0 day
Mus musculus [26] = test: Anti-inflammatory bowel disease activity in DSS-induced inflammatory bowel disease C57BL/6 mouse model assessed as decrease in body weight loss by measuring disease activity index score at 25 mg/kg,ip BID for 7 days; assay type: functional, organism-based; conditions: time 7.0 day
Mus musculus [27] = test: Anti-inflammatory bowel disease activity in DSS-induced inflammatory bowel disease C57BL/6 mouse model assessed as decrease in diarrhoea by measuring disease activity index score at 25 mg/kg,ip BID for 7 days; assay type: functional, organism-based; conditions: time 7.0 day

Chain of Dual specificity calcium/calmodulin-dependent 3',5'-cyclic nucleotide phosphodiesterase 1C (Q14123 whole entry, the tested form may be a part): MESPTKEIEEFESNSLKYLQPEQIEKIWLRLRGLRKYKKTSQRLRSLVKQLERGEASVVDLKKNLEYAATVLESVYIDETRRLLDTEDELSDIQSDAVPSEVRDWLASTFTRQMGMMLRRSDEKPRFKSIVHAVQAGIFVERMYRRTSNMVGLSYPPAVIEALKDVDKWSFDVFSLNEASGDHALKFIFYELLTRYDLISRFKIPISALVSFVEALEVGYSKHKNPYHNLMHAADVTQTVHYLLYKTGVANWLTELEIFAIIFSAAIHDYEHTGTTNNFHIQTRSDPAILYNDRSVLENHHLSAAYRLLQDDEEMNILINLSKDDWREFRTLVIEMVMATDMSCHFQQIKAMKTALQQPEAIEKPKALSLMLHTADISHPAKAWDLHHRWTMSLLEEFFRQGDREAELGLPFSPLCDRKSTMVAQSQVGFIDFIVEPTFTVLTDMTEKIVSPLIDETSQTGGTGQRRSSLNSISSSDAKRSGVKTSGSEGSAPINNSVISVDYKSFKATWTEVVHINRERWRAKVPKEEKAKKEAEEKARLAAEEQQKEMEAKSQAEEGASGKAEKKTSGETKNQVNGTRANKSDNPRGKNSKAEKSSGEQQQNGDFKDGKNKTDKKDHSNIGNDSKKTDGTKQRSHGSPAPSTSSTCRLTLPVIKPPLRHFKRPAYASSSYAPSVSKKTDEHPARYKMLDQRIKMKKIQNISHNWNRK
Chain of High affinity cGMP-specific 3',5'-cyclic phosphodiesterase 9A (O76083 whole entry, the tested form may be a part): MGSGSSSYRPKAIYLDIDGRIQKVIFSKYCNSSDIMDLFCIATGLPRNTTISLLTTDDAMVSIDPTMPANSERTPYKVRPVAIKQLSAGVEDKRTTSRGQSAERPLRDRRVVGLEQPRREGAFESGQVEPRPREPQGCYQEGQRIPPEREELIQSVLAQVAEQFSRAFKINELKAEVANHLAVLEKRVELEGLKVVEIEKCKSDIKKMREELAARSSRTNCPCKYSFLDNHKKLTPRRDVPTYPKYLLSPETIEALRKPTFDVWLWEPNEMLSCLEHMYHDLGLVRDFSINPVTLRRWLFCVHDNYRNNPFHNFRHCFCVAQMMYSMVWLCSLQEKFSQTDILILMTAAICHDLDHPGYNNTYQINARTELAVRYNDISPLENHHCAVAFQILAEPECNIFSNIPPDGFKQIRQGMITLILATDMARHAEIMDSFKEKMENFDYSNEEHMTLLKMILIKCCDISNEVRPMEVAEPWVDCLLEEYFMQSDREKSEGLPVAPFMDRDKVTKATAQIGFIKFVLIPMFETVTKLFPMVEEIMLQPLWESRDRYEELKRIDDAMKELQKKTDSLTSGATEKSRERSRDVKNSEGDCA
Chain of cGMP-dependent 3',5'-cyclic phosphodiesterase (O00408 whole entry, the tested form may be a part): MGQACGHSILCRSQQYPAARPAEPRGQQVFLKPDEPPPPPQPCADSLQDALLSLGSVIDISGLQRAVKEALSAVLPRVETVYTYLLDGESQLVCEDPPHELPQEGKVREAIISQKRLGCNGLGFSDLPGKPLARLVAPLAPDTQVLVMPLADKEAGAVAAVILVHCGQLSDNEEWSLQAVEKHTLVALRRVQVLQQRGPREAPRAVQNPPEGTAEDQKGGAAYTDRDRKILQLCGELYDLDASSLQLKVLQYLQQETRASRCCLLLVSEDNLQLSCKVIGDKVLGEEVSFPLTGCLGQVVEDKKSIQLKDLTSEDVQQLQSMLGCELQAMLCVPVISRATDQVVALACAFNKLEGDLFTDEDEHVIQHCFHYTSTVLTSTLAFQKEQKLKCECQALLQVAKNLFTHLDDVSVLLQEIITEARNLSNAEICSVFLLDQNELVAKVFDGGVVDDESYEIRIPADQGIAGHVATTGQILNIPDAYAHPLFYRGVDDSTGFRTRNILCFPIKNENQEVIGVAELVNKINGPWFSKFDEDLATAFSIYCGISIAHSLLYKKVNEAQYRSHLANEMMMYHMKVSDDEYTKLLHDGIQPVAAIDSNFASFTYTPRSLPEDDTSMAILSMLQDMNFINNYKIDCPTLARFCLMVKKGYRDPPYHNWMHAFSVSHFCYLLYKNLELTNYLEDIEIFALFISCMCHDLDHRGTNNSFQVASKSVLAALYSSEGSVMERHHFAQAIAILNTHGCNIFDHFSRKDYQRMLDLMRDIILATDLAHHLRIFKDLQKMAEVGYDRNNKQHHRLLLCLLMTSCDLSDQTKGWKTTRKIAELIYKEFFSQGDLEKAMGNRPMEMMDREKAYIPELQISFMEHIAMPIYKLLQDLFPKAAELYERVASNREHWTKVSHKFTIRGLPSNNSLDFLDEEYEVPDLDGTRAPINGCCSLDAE
Chain of cGMP-inhibited 3',5'-cyclic phosphodiesterase 3A (Q14432 whole entry, the tested form may be a part): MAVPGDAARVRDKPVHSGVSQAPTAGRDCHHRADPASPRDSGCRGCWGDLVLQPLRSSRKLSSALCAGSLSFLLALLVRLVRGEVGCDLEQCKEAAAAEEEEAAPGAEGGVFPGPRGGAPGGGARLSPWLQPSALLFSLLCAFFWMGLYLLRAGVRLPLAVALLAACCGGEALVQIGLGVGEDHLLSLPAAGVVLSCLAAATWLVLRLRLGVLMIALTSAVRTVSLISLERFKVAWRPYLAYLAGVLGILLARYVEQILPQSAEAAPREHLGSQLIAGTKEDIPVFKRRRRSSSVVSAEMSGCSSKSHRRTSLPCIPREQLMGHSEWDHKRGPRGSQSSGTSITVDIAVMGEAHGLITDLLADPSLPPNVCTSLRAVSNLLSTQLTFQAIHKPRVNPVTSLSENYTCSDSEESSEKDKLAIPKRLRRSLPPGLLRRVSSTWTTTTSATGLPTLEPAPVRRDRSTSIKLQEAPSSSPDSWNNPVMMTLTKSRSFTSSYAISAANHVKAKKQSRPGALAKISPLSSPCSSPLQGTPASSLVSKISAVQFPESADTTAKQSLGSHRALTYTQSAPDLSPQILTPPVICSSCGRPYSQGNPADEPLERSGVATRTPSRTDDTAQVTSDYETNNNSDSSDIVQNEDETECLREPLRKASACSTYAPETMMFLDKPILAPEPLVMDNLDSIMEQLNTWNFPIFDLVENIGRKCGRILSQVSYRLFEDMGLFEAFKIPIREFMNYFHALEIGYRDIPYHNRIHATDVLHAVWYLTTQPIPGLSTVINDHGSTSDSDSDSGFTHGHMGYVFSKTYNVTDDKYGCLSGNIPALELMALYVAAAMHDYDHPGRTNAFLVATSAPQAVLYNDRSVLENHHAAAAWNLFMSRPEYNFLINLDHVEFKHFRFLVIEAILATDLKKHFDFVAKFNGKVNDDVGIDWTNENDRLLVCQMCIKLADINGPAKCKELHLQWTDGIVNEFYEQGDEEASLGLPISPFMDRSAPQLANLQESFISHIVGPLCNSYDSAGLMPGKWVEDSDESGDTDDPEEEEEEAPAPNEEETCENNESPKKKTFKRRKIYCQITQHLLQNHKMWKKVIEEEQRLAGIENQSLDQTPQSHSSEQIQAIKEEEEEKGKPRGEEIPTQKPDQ
Chain of cAMP and cAMP-inhibited cGMP 3',5'-cyclic phosphodiesterase 10A (Q9Y233 whole entry, the tested form may be a part): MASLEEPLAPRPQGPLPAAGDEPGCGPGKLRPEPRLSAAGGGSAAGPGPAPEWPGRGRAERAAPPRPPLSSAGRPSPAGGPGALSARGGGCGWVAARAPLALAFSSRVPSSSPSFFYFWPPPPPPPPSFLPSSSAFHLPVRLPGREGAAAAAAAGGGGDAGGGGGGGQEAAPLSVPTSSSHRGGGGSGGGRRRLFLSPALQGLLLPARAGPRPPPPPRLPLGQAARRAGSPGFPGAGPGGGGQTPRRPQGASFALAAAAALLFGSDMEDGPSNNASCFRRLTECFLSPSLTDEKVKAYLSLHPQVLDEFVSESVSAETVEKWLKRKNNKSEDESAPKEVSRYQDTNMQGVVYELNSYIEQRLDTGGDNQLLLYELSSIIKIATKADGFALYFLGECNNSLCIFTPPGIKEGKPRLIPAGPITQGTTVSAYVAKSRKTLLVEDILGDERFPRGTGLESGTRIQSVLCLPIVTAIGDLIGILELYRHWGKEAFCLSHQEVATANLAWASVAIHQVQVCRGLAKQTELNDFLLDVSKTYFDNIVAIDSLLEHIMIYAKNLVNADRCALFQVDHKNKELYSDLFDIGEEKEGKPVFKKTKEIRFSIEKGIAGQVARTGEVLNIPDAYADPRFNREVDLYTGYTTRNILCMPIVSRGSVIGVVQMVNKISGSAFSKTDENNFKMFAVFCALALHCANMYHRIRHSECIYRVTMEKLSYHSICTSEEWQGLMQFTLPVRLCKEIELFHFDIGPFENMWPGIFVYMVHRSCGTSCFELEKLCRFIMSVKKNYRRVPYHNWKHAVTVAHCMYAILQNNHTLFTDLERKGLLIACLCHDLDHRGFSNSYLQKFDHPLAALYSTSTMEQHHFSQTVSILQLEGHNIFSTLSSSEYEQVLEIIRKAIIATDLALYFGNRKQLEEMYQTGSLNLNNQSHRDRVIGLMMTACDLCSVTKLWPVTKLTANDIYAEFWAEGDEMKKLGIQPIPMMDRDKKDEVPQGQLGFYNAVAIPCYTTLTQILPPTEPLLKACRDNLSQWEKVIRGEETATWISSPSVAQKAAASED
Chain of High affinity 3',5'-cyclic-AMP phosphodiesterase 7A (Q13946 whole entry, the tested form may be a part): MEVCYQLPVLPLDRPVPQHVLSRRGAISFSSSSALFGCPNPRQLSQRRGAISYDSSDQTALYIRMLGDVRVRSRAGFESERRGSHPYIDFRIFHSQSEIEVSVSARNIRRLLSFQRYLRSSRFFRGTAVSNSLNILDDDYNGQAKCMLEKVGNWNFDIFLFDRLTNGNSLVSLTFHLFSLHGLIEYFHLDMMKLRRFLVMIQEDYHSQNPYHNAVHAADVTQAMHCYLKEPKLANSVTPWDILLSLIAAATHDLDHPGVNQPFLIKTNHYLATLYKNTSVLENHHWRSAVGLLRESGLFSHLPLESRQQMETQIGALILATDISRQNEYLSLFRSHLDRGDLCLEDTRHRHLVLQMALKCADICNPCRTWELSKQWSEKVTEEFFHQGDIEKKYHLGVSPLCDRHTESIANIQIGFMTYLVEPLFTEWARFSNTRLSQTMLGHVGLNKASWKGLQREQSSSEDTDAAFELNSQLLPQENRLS

For `Cc1ccc(-c2c(C#N)c(=O)n(Cc3ccccc3)c3cc(NC(C)c4ccccc4)ccc23)cc1` (configuration not stated), which IC50 [1] is on record?
Its IC50 is 55 nM.

With `Cc1ccc(-c2c(C#N)c(=O)n(Cc3ccccc3)c3c(NC(C)c4ccccn4)cccc23)cc1` (configuration not stated) as the compound, how does the IC50 [1] read?
The IC50 was greater than 1000 nM.

For `CC(Nc1ccc2c(C3CCCC3)c(C#N)c(=O)n(Cc3ccccc3)c2c1)c1ccccn1` (configuration not stated), which IC50 [1] is on record?
Its IC50 is 20 nM.

For `CCCCCn1c(=O)c(C#N)c(-c2ccc(C)cc2)c2ccc(NC(C)c3ccccn3)cc21` (configuration not stated), which IC50 [1] is on record?
The IC50 was greater than 1000 nM.

Which IC50 [2] does the source give for `Cc1ccc(-c2c(C#N)c(=O)n(Cc3ccccc3)c3ccccc23)cc1` here?
Its IC50 is 5830 nM.

What about the IC50 [1] of the same compound?
The IC50 was 48 nM.

For `CC(Nc1ccc2c(C(C)(C)C)c(C#N)c(=O)n(Cc3ccccc3)c2c1)c1ccccn1` (configuration not stated), which IC50 [1] is on record?
Its IC50 is 83 nM.

Which IC50 [1] does the source give for `Cc1ccc(-c2c(C#N)c(=O)n(Cc3ccncc3)c3cc(NC(C)c4ccccn4)ccc23)cc1` (configuration not stated) here?
Its IC50 is greater than 1000 nM.

Which IC50 [1] does the source give for `C[C@H](Nc1ccc2c(C3CCCC3)c(C#N)c(=O)n(CC3CCCC3)c2c1)c1ccccn1` here?
The IC50 was 16 nM.

Which Activity (RAW264.7 [3]) does the source give for `N#Cc1c(C2CCCC2)c2ccc(NCc3ccc(F)cn3)cc2n(CC2CCCC2)c1=O` here?
Its Activity is “Dose-Dependent Effect”.

What about the IC50 [4] of the same compound?
The IC50 was greater than 10000 nM.

What about the half-life [5] of the same compound?
The half-life was 1.6 min.

And the Activity (Mus musculus [6])?
Its Activity is “Active”.

And the IC50 [2]?
The IC50 was greater than 10000 nM.

What about the IC50 [1] of the same compound?
The IC50 was 15 nM.

And the Activity (Mus musculus [7])?
The Activity was “Active”.

And the Activity (Mus musculus [8])?
The Activity was “Active”.

And the IC50 [9]?
Its IC50 is 2300 nM.

What about the Activity (Mus musculus [10]) of the same compound?
The Activity was “Active”.

What about the IC50 [11] of the same compound?
Its IC50 is 610 nM.

What about the IC50 [12] of the same compound?
Its IC50 is greater than 10000 nM.

And the Activity (RAW264.7 [13])?
Its Activity is “Dose-Dependent Effect”.

What about the Activity (Mus musculus [14]) of the same compound?
The Activity was “Active”.

And the IC50 [15]?
The IC50 was 2180 nM.

And the IC50 [16]?
Its IC50 is 3030 nM.

And the Activity (RAW264.7 [17])?
The Activity was “Dose-Dependent Effect”.

What about the Activity (RAW264.7 [18]) of the same compound?
Its Activity is “Dose-Dependent Effect”.

And the Activity (RAW264.7 [19])?
The Activity was “Dose-Dependent Effect”.

And the Activity (RAW264.7 [20])?
The Activity was “Dose-Dependent Effect”.

What about the IC50 [21] of the same compound?
The IC50 was greater than 10000 nM.

What about the Activity (Mus musculus [22]) of the same compound?
Its Activity is “Active”.

With `CC(Nc1ccc2c(C3CCCC3)c(C#N)c(=O)n(CC3CCCC3)c2c1)c1ccccn1` (configuration not stated) as the compound, how does the IC50 [1] read?
The IC50 was 19 nM.

Which IC50 [1] does the source give for `Cc1ccc(-c2c(C#N)c(=O)n(CC3CCCC3)c3cc(NC(C)c4ccccn4)ccc23)cc1` (configuration not stated) here?
Its IC50 is 25 nM.

With `N#Cc1c(C2CCCC2)c2ccc(NCC3CCOCC3)cc2n(CC2CCCC2)c1=O` as the compound, how does the IC50 [1] read?
The IC50 was greater than 1000 nM.

Which IC50 [1] does the source give for `Cc1ccc(-c2c(C#N)c(=O)n(Cc3ccccc3)c3cc(NC(C)c4ccccn4)ccc23)cc1` (configuration not stated) here?
The IC50 was 15 nM.

For `Cc1ccc(-c2c(C#N)c(=O)n(Cc3ccccc3)c3ccc(NC(C)c4ccccn4)cc23)cc1` (configuration not stated), which IC50 [1] is on record?
The IC50 was 24 nM.

What does the source list for `OCCN(CCO)c1nc(N2CCCCC2)c2nc(N(CCO)CCO)nc(N3CCCCC3)c2n1` [DIPYRIDAMOLE]?
Activity (Mus musculus [23]): Active; Activity [24]: Toxic; Activity (Mus musculus [25]): Active; Activity (Mus musculus [26]): Active; Activity (Mus musculus [27]): Active

With `C[C@@H](Nc1ccc2c(C3CCCC3)c(C#N)c(=O)n(CC3CCCC3)c2c1)c1ccccn1` as the compound, how does the IC50 [1] read?
The IC50 was 38 nM.

For `CC(C)c1c(C#N)c(=O)n(Cc2ccccc2)c2cc(NC(C)c3ccccn3)ccc12` (configuration not stated), which IC50 [1] is on record?
The IC50 was 22 nM.

For `CCCCNc1ccc2c(-c3ccc(C)cc3)c(C#N)c(=O)n(Cc3ccccc3)c2c1`, which IC50 [1] is on record?
Its IC50 is greater than 1000 nM.

With `CC(Nc1ccc2c(C3CC3)c(C#N)c(=O)n(Cc3ccccc3)c2c1)c1ccccn1` (configuration not stated) as the compound, how does the IC50 [1] read?
The IC50 was 218 nM.

With `Cc1ccc(-c2c(C#N)c(=O)[nH]c3ccccc23)cc1` as the compound, how does the IC50 [2] read?
The IC50 was 8.9 nM.

What about the IC50 [1] of the same compound?
Its IC50 is 450 nM.
